Like-named read-outs stand apart in the source and are kept apart here.
Tests used:
PARP14 MD2 [1] = biological target: T1, PARP14 MD2 (Homo sapiens, UniProt Q460N5); experiment: Biophysical KD determination (Bio-Layer Interferometry or Isothermal Titration Calorimetry); type: binding; parameters: PARP14 MD2 (second MD of PARP14)
T1 sequence (Q460N5 1003-1190 limits assumed): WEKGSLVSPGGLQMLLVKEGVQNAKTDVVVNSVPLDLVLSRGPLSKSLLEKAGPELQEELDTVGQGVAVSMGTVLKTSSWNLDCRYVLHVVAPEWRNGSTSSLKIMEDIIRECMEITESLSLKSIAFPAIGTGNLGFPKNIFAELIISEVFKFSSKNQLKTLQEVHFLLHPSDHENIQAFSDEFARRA
Source text: (§1) Compounds were profiled for binding activity with PARP14 MD2 through a competitive (AlphaScreen™) binding assay measuring the displacement of ADP-ribose peptide from PARP14 MD2.[11a]

PARP14 MD2 [2] = biological target: T1, PARP14 MD2; experiment: AlphaScreen competitive binding assay, displacement of ADP-ribose peptide from PARP14 MD2; parameters: PARP14 MD2 (second MD of PARP14); details: AlphaScreen, PARP14 MD2, read-out: IC50
Source text: as §1

PARP14 MD2 [3] = biological target: T1, PARP14 MD2; experiment: BioLayer Interferometry (BLI)

SMILES	IC50 (PARP14 MD2 [2]; Table 2)	also measured
CS(=O)(=O)Nc1cc(C#N)ccc1-c1cccc2c1[nH]c1ccccc12 [compound 56, N-(2-(9H-Carbazol-1-yl)-5-cyanophenyl)methanesulfonamide]	–	Kd (PARP14 MD2 [1]; Table 1, BLI or ITC): 5200 ± 1700 nM
CC(=O)Nc1cccc(C)c1-c1cccc2c1[nH]c1ccccc12 [compound 57, N-(2-(9H-Carbazol-1-yl)-3-methylphenyl)acetamide]	–	IC50 (PARP14 MD2 [2]; Table 1): 1.7 ± 0.1 µM; Kd (PARP14 MD2 [1]; Table 1, BLI or ITC): 1600 ± 700 nM
O=C(Cc1cccnc1)Nc1ccccc1-c1cccc2c1[nH]c1ccccc12 [compound 83, N-(2-(9H-Carbazol-1-yl)phenyl)-2-(pyridin-3-yl)acetamide]	1.1 µM	Kd (PARP14 MD2 [1]; Table 2, BLI or ITC): 1500 nM
Cc1ccc(CC(=O)Nc2ccccc2-c2cccc3c2[nH]c2ccccc23)cn1 [compound 84, N-(2-(9H-Carbazol-1-yl)phenyl)-2-(6-methylpyridin-3-yl)acetamide]	1 µM	Kd (PARP14 MD2 [1]; Table 2, BLI or ITC): 2700 nM
O=C(Cc1cnccn1)Nc1ccccc1-c1cccc2c1[nH]c1ccccc12 [compound 85, N-(2-(9H-Carbazol-1-yl)phenyl)-2-(pyrazin-2-yl)acetamide]	2.1 ± 0.1 µM	Kd (PARP14 MD2 [1]; Table 2, BLI or ITC): 3900 nM
O=C(Cc1ccc(=O)[nH]c1)Nc1ccccc1-c1cccc2c1[nH]c1ccccc12 [compound 88, N-(2-(9H-Carbazol-1-yl)phenyl)-2-(6-oxo-1,6-dihydropyridin-3-yl)acetamide]	6.6 ± 0.4 µM	–
O=S(=O)(Cc1ccccc1F)Nc1ccccc1-c1cccc2c1[nH]c1ccccc12 [compound 89, N-(2-(9H-Carbazol-1-yl)phenyl)-1-(2-fluorophenyl)methanesulfonamide]	2.4 ± 0.1 µM	–
O=C(Cc1ccccc1F)Nc1ccccc1-c1cccc2c1[nH]c1ccccc12 [compound 90, N-(2-(9H-Carbazol-1-yl)phenyl)-2-(2-fluorophenyl)acetamide]	2.8 ± 0.2 µM	–
O=C(Cc1ccccc1Cl)Nc1ccccc1-c1cccc2c1[nH]c1ccccc12 [compound 91, N-(2-(9H-Carbazol-1-yl)phenyl)-2-(2-chlorophenyl)acetamide]	4.4 ± 0.3 µM	–
Cc1ccc(CC(=O)Nc2ccccc2-c2cccc3c2[nH]c2ccccc23)cc1 [compound 92, N-(2-(9H-Carbazol-1-yl)phenyl)-2-(p-tolyl)acetamide]	8.7 ± 1.2 µM	–
O=C(Cc1ccc(F)cc1)Nc1ccccc1-c1cccc2c1[nH]c1ccccc12 [compound 93, N-(2-(9H-Carbazol-1-yl)phenyl)-2-(4-fluorophenyl)acetamide]	> 50 µM	–
COc1ccc(CC(=O)Nc2ccccc2-c2cccc3c2[nH]c2ccccc23)cc1 [compound 94, N-(2-(9H-Carbazol-1-yl)phenyl)-2-(4-methoxyphenyl)acetamide]	6.2 ± 0.6 µM	–
N#Cc1ccc(CS(=O)(=O)Nc2ccccc2-c2cccc3c2[nH]c2ccccc23)cc1 [compound 95, N-(2-(9H-Carbazol-1-yl)phenyl)-1-(4-cyanophenyl)methanesulfonamide]	6.2 ± 0.6 µM	–
O=C(Cc1ccc(Cl)cc1)Nc1ccccc1-c1cccc2c1[nH]c1ccccc12 [compound 96, N-(2-(9H-Carbazol-1-yl)phenyl)-2-(4-chlorophenyl)acetamide]	6.2 ± 0.6 µM	–
O=S(=O)(Cc1ccc(C(F)(F)F)cc1)Nc1ccccc1-c1cccc2c1[nH]c1ccccc12 [compound 97, N-(2-(9H-Carbazol-1-yl)phenyl)-1-(4-(trifluoromethyl)phenyl)methanesulfonamide]	8.1 ± 0.7 µM	–

Now from value to compound, other results behind:

IC50 (PARP14 MD2 [2]; Table 2)	SMILES	also measured
4.3 ± 0.3 µM	COc1ccc(CC(=O)Nc2ccccc2-c2cccc3c2[nH]c2ccccc23)cc1OC [compound 98, N-(2-(9H-Carbazol-1-yl)phenyl)-2-(3,4-dimethoxyphenyl)acetamide]	–
6.9 ± 0.6 µM	O=C(Cc1ccc2c(c1)OCO2)Nc1ccccc1-c1cccc2c1[nH]c1ccccc12 [compound 99, N-(2-(9H-Carbazol-1-yl)phenyl)-2-(benzo[d][1,3]dioxol-5-yl)acetamide]	–
1.2 µM	N#Cc1ccc(F)c(CS(=O)(=O)Nc2ccccc2-c2cccc3c2[nH]c2ccccc23)c1 [compound 100, N-(2-(9H-Carbazol-1-yl)phenyl)-1-(5-cyano-2-fluorophenyl)methanesulfonamide]	Kd (PARP14 MD2 [1]; Table 2, BLI or ITC): 1300 nM
44.6 ± 10.4 µM	Cc1ccc(C)c(CC(=O)Nc2ccccc2-c2cccc3c2[nH]c2ccccc23)c1 [compound 101, N-(2-(9H-Carbazol-1-yl)phenyl)-2-(2,5-dimethylphenyl)acetamide]	–
6.3 ± 0.6 µM	O=C(Cc1ccc(Cl)c(Cl)c1)Nc1ccccc1-c1cccc2c1[nH]c1ccccc12 [compound 102, N-(2-(9H-Carbazol-1-yl)phenyl)-2-(3,4-dichlorophenyl)acetamide]	–
6.6 ± 0.5 µM	COc1cccc(CC(=O)Nc2ccccc2-c2cccc3c2[nH]c2ccccc23)c1 [compound 103, N-(2-(9H-Carbazol-1-yl)phenyl)-2-(3-methoxyphenyl)acetamide]	–
4.2 ± 0.3 µM	O=C(Cc1cccc(F)c1)Nc1ccccc1-c1cccc2c1[nH]c1ccccc12 [compound 104, N-(2-(9H-Carbazol-1-yl)phenyl)-2-(3-fluorophenyl)acetamide]	–
1.4 ± 0.1 µM	O=S(=O)(Cc1cccc(F)c1)Nc1ccccc1-c1cccc2c1[nH]c1ccccc12 [compound 105, N-(2-(9H-Carbazol-1-yl)phenyl)-1-(3-fluorophenyl)methanesulfonamide]	–
7.1 ± 0.7 µM	O=C(Cc1cccc(C(F)(F)F)c1)Nc1ccccc1-c1cccc2c1[nH]c1ccccc12 [compound 106, N-(2-(9H-Carbazol-1-yl)phenyl)-2-(3-(trifluoromethyl)phenyl)acetamide]	–
2.1 ± 0.1 µM	N#Cc1cccc(CC(=O)Nc2ccccc2-c2cccc3c2[nH]c2ccccc23)c1 [compound 107, N-(2-(9H-Carbazol-1-yl)phenyl)-2-(3-cyanophenyl)acetamide]	–
0.66 ± 0.03 µM	N#Cc1cccc(CS(=O)(=O)Nc2ccccc2-c2cccc3c2[nH]c2ccccc23)c1 [compound 108, N-(2-(9H-Carbazol-1-yl)phenyl)-1-(3-cyanophenyl)methanesulfonamide]	Kd (PARP14 MD2 [3]; read-out: KD (BLI)): 550 nM; Kd (PARP14 MD2 [3]; read-out: calculated KD (BLI)): 550 nM; Kd (PARP14 MD2 [1]; Table 2, BLI or ITC): 550 nM
